Data set [1] addresses T1, AR protein (Homo sapiens, UniProt P10275).
T1 construct: VCap is a human prostate cancer cell line purchased from ATCC; host or cells: VCaP human prostate cancer cells
T1 sequence (P10275 1-920): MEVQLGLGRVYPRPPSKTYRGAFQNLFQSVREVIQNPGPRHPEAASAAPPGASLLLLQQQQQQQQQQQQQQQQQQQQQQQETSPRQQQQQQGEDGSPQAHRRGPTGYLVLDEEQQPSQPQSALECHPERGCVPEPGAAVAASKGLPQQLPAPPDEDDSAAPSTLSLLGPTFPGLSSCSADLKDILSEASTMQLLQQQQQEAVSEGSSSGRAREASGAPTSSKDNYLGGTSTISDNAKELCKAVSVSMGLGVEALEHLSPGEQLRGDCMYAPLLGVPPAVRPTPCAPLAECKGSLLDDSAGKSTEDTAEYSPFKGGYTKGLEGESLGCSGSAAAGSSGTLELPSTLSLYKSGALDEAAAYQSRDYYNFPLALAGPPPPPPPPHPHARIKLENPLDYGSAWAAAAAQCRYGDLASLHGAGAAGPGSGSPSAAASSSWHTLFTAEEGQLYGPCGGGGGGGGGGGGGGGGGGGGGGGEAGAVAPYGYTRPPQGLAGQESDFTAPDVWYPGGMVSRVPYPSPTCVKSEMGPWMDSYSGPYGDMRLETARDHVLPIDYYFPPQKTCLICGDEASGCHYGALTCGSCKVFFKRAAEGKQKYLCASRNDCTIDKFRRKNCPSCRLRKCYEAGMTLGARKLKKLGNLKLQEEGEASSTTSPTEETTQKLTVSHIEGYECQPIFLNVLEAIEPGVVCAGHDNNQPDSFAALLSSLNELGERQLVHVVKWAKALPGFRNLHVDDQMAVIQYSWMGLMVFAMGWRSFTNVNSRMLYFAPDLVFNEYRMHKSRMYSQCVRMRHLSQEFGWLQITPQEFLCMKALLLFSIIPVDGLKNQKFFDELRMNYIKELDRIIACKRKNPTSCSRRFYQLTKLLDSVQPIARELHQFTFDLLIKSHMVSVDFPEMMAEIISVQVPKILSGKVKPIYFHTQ
As to the kind of experiment: Detection of AR degradation in VCaP cells (automated western blot). To be noted: degradation of AR protein in VCaP cells, 24 hours incubation. It counts as cell-based. The method, boiled down:
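VCaP cells (5 × 10^5/well) were treated with compounds at various concentrations for 24 h at 37°C. Lysate AR level was quantified by automated capillary western blot, normalised to β-actin and expressed relative to solvent control. DC50 came from four-parameter nonlinear regression; degradation rate = 100 − AR%.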
On the technique in general: In western blotting, separated proteins are transferred to a membrane and probed.

Data set [2] is described as follows: Pharmacokinetic test in rats. Type of data set: in vivo, SD rats. To be noted: i.g. (5 mg/kg), vehicle 5% DMSO+5% Solutol+90% (20% SBE-β-CD); for AUC(0-t): rat, plasma, po. As to the method:
Experimental objective: In this experiment, a single dose of the test compound was administered to SD rats via intravenous administration and intragastric gavage, and the concentration of the test compound in plasma of the rats was measured to evaluate the pharmacokinetic profile of the test compound in the rats.
Experimental animals: Male SD rats, 200-220 g, 6 rats/compound, purchased from Chengdu Ddossy Experimental Animals Co., Ltd.
Experimental method: On the day of the experiment, 6 SD rats were randomly grouped according to their body weights. The animals were fasted with water available for 12 to 14 h one day before the administration, and were fed 4 h after the administration. Table 3 Administration information of pharmacokinetic test in rats
Sampling: Before and after the administration, 0.1 mL of blood was taken from the orbits under isoflurane anaesthesia, and placed in an EDTAK2 centrifuge tube. Centrifugation was carried out at 5000 rpm at 4°C for 10 min, and the plasma was collected.
The plasma collection time points for IV&PO groups were 0, 5 min, 15 min, 30 min, 1 h, 2 h, 4 h, 7 h, 24 h, and 48 h.
Before analysis and detection, all samples were stored at -60°C. The samples were analysed quantitatively by LC-MS/MS. Table 4 Pharmacokinetic parameters of compounds of the present invention in plasma of rats

The test system of data set [3] is VCaP cells. As to the kind of experiment: VCaP cell proliferation inhibition experiment (CellTiter-Glo). To be noted: Homo sapiens, 168 h. Type of data set: cell-based. As to the method:
After centrifugation and resuspension, viable cell counting was performed using a Vi-Cell XR cell counter. […] Then, 180 µl of the cell suspension was added per well to a 96-well cell culture plate at a cell density of 7,500 cells/well. At the time of seeding, T0 wells were also prepared. The following day, R1881 at a final concentration of 0.1 nM and compounds at various concentrations were added. The plate was placed back into the incubator and cultured for an additional 7 days. At the time of compound addition, the T0 plate was measured using the CellTiter-Glo (CTG) kit (Promega, Cat. No. G7572) and recorded as RLU0. Following incubation, 75 µl of pre-thawed and room temperature-equilibrated CellTiter-Glo solution was added to each well. […] The results were processed according to Equation (2). […] Growth% = (RLUcompound−RLU0)/(RLUcontrol−RLU0) × 100% [formula]
(In general: ATP-based viability assays read luminescence as a measure of living cells.)

Data set [4] is described as follows: Pharmacokinetic test in mice. It counts as in vivo, ICR mice. The conditions noted are these: i.g. (5 mg/kg); for AUC(0-t): mouse, plasma, po. Here is the method:
Experimental objective: In this experiment, a single dose of the test compound was administered to ICR mice via intravenous administration and intragastric gavage, and the concentration of the test compound in plasma of the mice was measured to evaluate the pharmacokinetic profile of the test compound in the mice.
Experimental animals: Male ICR mice, 6 mice/compound, purchased from Chengdu Ddossy Experimental Animals Co., Ltd.
Experimental method: On the day of the experiment, 6 […] were randomly grouped according to their body weights. The animals were fasted with water available for 12 to 14 h one day before the administration, and were fed 4 h after the administration. Table 6 Administration information of pharmacokinetic test in mice
Sampling: Before and after the administration, 0.15 mL of blood was taken from the orbits under isoflurane anaesthesia, and placed in an EDTAK2 centrifuge tube. Centrifugation was carried out at 5000 rpm at 4°C for 10 min, and the plasma was collected.
The plasma collection time points for PO groups were 0, 5 min, 15 min, 30 min, 1 h, 2 h, 4 h, 7 h, 24 h, and 48 h.
The plasma collection time points for IV groups were 0, 5 min, 15 min, 30 min, 1 h, 2 h, 4 h, 7 h, 24 h, and 48 h.
Before analysis and detection, all samples were stored at -60°C. The samples were analysed quantitatively by LC-MS/MS. Table 7 Pharmacokinetic parameters of compounds of the present invention in plasma of mice

Data set [5] addresses T2, hERG potassium channel (Homo sapiens, UniProt Q12809).
T2 construct: expressed in transfected cells; host or cells: CHO cells stably expressing hERG
As to the kind of experiment: hERG potassium ion channel test (manual patch-clamp, CHO cells). Type of data set: cell-based. To be noted: chinese hamster; inhibitory activity against hERG potassium channel current, CHO cells, whole cell patch-clamp; read-out: IC50. The text has this: Experimental platform: Electrophysiological manual patch-clamp system
Cell line: Chinese hamster ovary (CHO) cell lines stably expressing hERG potassium ion channel
Experimental method: In Chinese Hamster Ovary (CHO) cells stably expressing hERG potassium channel, whole cell patch-clamp technique was used to record hERG potassium channel current at room temperature. The glass microelectrode was made of a glass electrode blank (BF150-86-10, Sutter) by a puller. The tip resistance after filling the liquid in the electrode was about 2-5 MΩ. The glass microelectrode can be connected to the patch-clamp amplifier by inserting the glass microelectrode into an amplifier probe. The clamping voltage and data recording were controlled and recorded by the pClamp 10 software through a computer. The sampling frequency was 10 kHz, and the filtering frequency was 2 kHz. After the whole cell records were obtained, the cells were clamped at -80 mV, and the step voltage that induced the hERG potassium current (I hERG) was depolarised from -80 mV to +20 mV for 2 s, then repolarised to -50 mV, and returned to -80 mV after 1 s. This voltage stimulation was given every 10 s, and the administration process was started after the hERG potassium current was confirmed to be stable (at least 1 minute). The compound was administered for at least 1 minute at each test concentration, and at least 2 cells (n ≥ 2) were tested at each concentration.
Data processing: Data analysis processing was carried out by using pClamp 10, GraphPad Prism 5 and Excel software.
Compound IC50 was calculated using GraphPad Prism 5 software by fitting according to the following equation: Y = Bottom + (Top−Bottom)/(1+10^(∧)((LogIC50−X)*HillSlope)) [formula] where X represents the Log value of the tested concentration of the test sample, Y represents the inhibition percentage at the corresponding concentration, and Bottom and Top represent the minimum and maximum inhibition percentage, respectively.
For orientation: The hERG channel carries a current that helps repolarise heart muscle cells.

The subject of data set [6] is Human CD34+ Hematopoietic stem cells. As to the kind of experiment: Human CD34+ hematopoietic stem cell proliferation inhibition experiment. Type of data set: cell-based. The conditions noted are these: 168 h, inhibitory activity against the proliferation of CD34+ hematopoietic stem cells, 7 days. As to the method:
Human CD34+ Hematopoietic stem cells (TPCS, Cat.hmPB34-P-2CW) are CD34-positive stem cells obtained from human PBMCs through immunomagnetic bead sorting. The culture conditions are as follows: DPBS (Gibco, Cat.14190-144) +StemSpan SFEM II ([…], Cat.9655) +1X StemSpan CD34+ Expansion Supplement ([…], Cat.2691). First, 40 nL of DMSO, the positive reference compound Talazoparib, or the test compounds were respectively added to a 384-well plate (Corning, Cat. 3764). Then, a cell suspension was added at 400 cells per well in 40 µL of medium, resulting in final concentrations of 0.1% DMSO, 3 µM Talazoparib, or various concentrations of the compounds in each well. The plate was centrifuged at room temperature at 1000 rpm for 1 minute, followed by incubation for 7 days in a 37°C, 5% CO2 incubator. Following incubation, 20 µL of CellTiter-Glo Reagent (Promega, Cat. G7573) was directly added to each well, and the plate was centrifuged at room temperature at 1000 rpm for 1 minute, followed by incubation for 20 minutes in the dark. Following incubation, the chemiluminescent signal (CFU) was read and recorded using an Envision multimode microplate reader (PerkinElmer, Cat. 2104). The cell proliferation inhibition rate at various compound concentrations was calculated according to Equation (3), where CFUhigh control represents the average signal value of the DMSO group, CFUlow control represents the average signal value of the Talazoparib group, and CFUcompound represents the average signal value of the compound-treated group. The processed data obtained from Equation (3) were analysed using XLfit or GraphPad Prism software, and a four-parameter curve fitting model was applied to calculate the compound concentration corresponding to a 50% inhibition rate, i.e., the IC50 value. Inhibition% = (CFUhigh control−CFUcompound)/(CFUhigh control−CFUlow control) × 100% [formula]

Setting [7] is: Vehicle 3: 5% DMSO+5% Solutol+90% (20% SBE-β-CD).

Each structure is given as a SMILES string. Like-named read-outs stand apart in the source and are kept apart here. A value given as a limit tells only on which side of the number the result lay.

T2 sequence (Q12809 whole entry): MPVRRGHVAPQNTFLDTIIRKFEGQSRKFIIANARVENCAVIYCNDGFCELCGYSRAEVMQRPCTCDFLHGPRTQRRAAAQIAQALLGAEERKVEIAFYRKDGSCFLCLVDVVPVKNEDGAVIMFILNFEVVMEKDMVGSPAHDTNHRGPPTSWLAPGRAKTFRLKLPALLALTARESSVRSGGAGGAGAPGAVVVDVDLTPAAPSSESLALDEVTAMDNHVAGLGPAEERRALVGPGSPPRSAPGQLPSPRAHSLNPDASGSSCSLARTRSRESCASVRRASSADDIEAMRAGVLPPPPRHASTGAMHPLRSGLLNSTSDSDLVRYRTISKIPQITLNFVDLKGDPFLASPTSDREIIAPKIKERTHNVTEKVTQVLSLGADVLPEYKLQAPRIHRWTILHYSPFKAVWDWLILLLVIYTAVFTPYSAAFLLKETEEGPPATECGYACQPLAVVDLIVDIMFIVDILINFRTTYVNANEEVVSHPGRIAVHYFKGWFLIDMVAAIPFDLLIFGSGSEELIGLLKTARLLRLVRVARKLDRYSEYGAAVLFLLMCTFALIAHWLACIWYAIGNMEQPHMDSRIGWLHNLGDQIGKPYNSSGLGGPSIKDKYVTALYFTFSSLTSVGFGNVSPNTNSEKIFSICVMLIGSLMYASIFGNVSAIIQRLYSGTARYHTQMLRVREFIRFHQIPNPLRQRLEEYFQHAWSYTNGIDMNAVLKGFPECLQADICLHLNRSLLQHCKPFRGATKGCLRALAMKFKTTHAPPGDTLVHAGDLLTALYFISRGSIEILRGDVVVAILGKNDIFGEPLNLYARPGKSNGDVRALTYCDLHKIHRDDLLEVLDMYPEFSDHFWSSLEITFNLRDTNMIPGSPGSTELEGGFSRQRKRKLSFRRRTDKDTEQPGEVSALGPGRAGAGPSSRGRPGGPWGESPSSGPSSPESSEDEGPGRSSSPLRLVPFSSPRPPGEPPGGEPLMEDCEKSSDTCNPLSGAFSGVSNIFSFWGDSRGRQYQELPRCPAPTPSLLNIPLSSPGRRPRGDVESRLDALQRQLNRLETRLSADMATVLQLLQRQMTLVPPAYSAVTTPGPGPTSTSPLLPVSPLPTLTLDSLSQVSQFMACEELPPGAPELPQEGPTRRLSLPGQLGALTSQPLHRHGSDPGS

By DC50 is commonly meant the concentration at which degradation of the target reaches its halfway point. The AUC(0-t) is the area under the concentration-time curve up to a stated or last time point. The low end stands for less exposure, the high end for more exposure. For orientation: GI50 means the concentration giving 50% growth inhibition. A high value points to lower sensitivity of the cells. Compound `COc1cc(O[C@H]2C(C)(C)[C@H](NC(=O)c3ccc(N4CCC(CN5CCN6c7cc(F)c(C8CCC(=O)NC8=O)cc7CC[C@@H]6C5)CC4)nn3)C2(C)C)ccc1C#N` (some centres unmarked) [Trifluoroacetate of compound 60] came in with a 50% degradation concentration (DC50) in data set [1] of less than 100 nM. In data set [2], this compound yielded an F of 57.5±3.0% and an AUC(0-t) of 6600 ± 349 ng·h/mL. For the same compound, in data set [3], the GI50 was less than 300 nM. Further, in data set [4] (setting [7]), the F is 84.2±8.4% and the area under the curve AUC(0-t) was determined as 41600 ± 4140 ng·h/mL.
Regarding `COc1cc(O[C@H]2C(C)(C)[C@H](NC(=O)c3ccc(N4CCC(CN5CCN(c6ccc(C(=O)N[C@H]7CCC(=O)NC7=O)c(F)c6)CC5)CC4)cc3)C2(C)C)ccc1C#N` [Control compound, reference compound], the F in data set [2] stood at 26.9±3.2%; in data set [4] (Vehicle 1: 5% DMSO+5% Solutol+30% PEG400+60% (20% SBE-CD)) it was 63.4±3.3%. The AUC(0-t) in data set [2] (male, SD) came to 2870 ± 338 ng·h/mL; in data set [4] (male, ICR, Vehicle 1: 5% DMSO+5% Solutol+30% PEG400+60% (20% SBE-CD)), 20700 ± 1080 ng·h/mL. In addition, the GI50 in data set [3] is more than 2000 nM.
As usually defined, the IC50 is the concentration needed to halve the response being measured. Regarding `COc1cc(O[C@H]2C(C)(C)[C@H](NC(=O)c3ccc(N4CCC(CN5CCN6c7cc(F)c(C(=O)N[C@H]8CCC(=O)NC8=O)cc7CC[C@@H]6C5)CC4)cc3)C2(C)C)ccc1C#N` [Compound 11], in data set [1] (read-out: DC50), the half-maximal degradation concentration (DC50) was less than 100 nM. For the same compound, the GI50 in data set [3] is less than 300 nM. Besides, the values for the half-inhibitory concentration (IC50) in data set [5] and in data set [6] were more than 40000 nM and more than 10000 nM, respectively.
On to `COc1cc(O[C@H]2C(C)(C)[C@H](NC(=O)c3ccc(N4CCC5(CC4)CC(CN4CCN6c7cc(F)c(C(=O)N[C@H]8CCC(=O)NC8=O)cc7CC[C@H]6C4)C5)cc3)C2(C)C)ccc1C#N` [Trifluoroacetate of compound 7], for which, in data set [1] (read-out: DC50), the 50% degradation concentration (DC50) is less than 100 nM. Moreover, the 50% inhibitory concentration (IC50) in data set [6] was more than 10000 nM.
Regarding `COc1cc(O[C@H]2C(C)(C)[C@H](NC(=O)c3ccc(N4CCC(CN5CCN6c7cc(F)c(C8CCC(=O)NC8=O)cc7CC[C@H]6C5)CC4)nn3)C2(C)C)ccc1C#N` (some centres unmarked) [Trifluoroacetate of compound 61], the DC50 in data set [1] (read-out: DC50) is less than 100 nM. Further, in data set [2], the F is on record as 43.5+14% and the exposure AUC(0-t) turned out to be 5460 ng·h/mL. The same compound had a 50% growth inhibitory concentration (GI50) in data set [3] of less than 300 nM. In data set [4] (setting [7]), this compound came in with an F of 98.8±12% and an AUC(0-t) of 28500 ± 3460 ng·h/mL.
